{"source": "patent US8404651B2", "about": "“Compositions and methods for treating viral infections” (priority 2008, dated 2013)", "key": {"TA98": {"test_system": "TA98", "experiment": "In vitro bacterial mutagenicity assay (pre-incubation), strain TA98", "conditions": "for Number of revertants x1, x2, x3: individual plates", "description": "(§1) Dispense 100 microliter aliquots of the appropriate bacterial cultures into sample tubes stored on ice. Dispense aliquots of the vehicle, positive controls or dose formulations into the appropriate sample tubes. 2 mL top Agar and HBT cap was added to the sample tube, inverted three times and poured into MG plate. The lid was replaced on the plate and left on a level surface to let the agar harden. The plates were incubated in an incubator for 48 to 72 h. The background lawn and count the number of revertants was checked for each plate."}, "[1]": {"experiment": "Cytotoxicity by neutral red dye uptake in replicon cultures in parallel plates", "conditions": "human", "description": "(§2) Primary anti-HCV assay-Antiviral activity against HCV was assessed in a 3-day assay (Okuse, et al., 2005; Antiviral. Res. 65:23; Korba, et al., 2008, Antiviral Res. 77:56) using the stably-expressing HCV replicon cell line, AVA5 [sub-genomic (CON1), genotype 1b](Blight, et al., 2000, Science 290:1972) maintained as sub-confluent cultures on 96-well plates. Antiviral activity was determined by blot hybridization analysis of intracellular HCV RNA (normalized to the level of cellular B-actin RNA in each culture sample). Cytotoxicity was assessed by neutral red dye uptake in cultures maintained in parallel plates.\n(§3) EC50, EC90, and CC50 values were calculated by linear regression analysis (MS EXCEL®, QUATTROPRO®) using data combined from all treated cultures Korba & Gerin, 1992, Antivir. Res. 19:55; Okuse, et al., 2005, Antivir. Res. 65:23). Standard deviations for EC50 and EC90 values were calculated from the standard errors generated by the regression analyses. […] The Selectivity index (S.I.) was calculated as CC50/EC50. Recombinant human interferon 2b (PBL laboratories, Inc.) was used as an assay control.\n(§4) For each combination of agents, three concentration ratios, centered on the use of the compounds at equipotent antiviral concentrations, were used. A dilution series (six three-fold-concentration steps, beginning at the approximate EC90) was then generated with the concentration ratio of the two agents remaining the same in each dilution step. Toxicity analysis was performed as described above for the monotherapies. Analysis of drug interactions in the combination studies was determined by the use of the […] program (Biosoft, Inc., Cambridge, United Kingdom). This program evaluates synergy, additivity, or antagonism by use of several methodologies, including that of Chou and Talalay with a statistical analysis employing the Monte Carlo technique to provide confidence limits, fraction-affected-confidence interval (FA-CI) plots, isobolograms, and median-effect plots. (Belenkii, M. S. Schinazi, R. A method for the analysis of combination therapies with statistical analysis. Antiviral Res. 25, 11, 2005)."}, "[2]": {"test_system": "HCV replicon cell line, AVA5", "experiment": "Cytotoxicity by neutral red dye uptake in replicon cultures in parallel plates", "conditions": "Table 5, Compound 2 alone or in combination, genotype 1B", "description": "as §2, §3, §4"}, "TA1537": {"test_system": "TA1537", "experiment": "In vitro bacterial mutagenicity assay (pre-incubation), strain TA1537", "conditions": "for Number of revertants x1, x2, x3: individual plates", "description": "as §1"}, "[3]": {"experiment": "14 day tolerability study in uPA SCID (KMT) mouse", "assay_type": "in vivo", "conditions": "for tolerability: 300 mg/kg once a day by oral gavage for 14 days, KMT mice", "description": "Two separate groups of animals were treated with vehicle control or with a daily drug dose of 300 mg/kg for 14 days. Blood samples were taken 15 minutes after the drug doses on Day 1 (first dose), Day 7 and Day 14 (last dose) for measurement of the concentration of the drug in the serum of study animals. Body weights and health index scores were monitored daily in order to assess tolerance of the study animals to the dosing procedure and the drug. […] The solution was used to dose animals in a volume of 7.5 ml/kg. The citric acid buffer was also used for dosing of the vehicle control animals.\nTen KMT transgenic animals with low engraftment of human liver cells (hAAT values less than 20 at 6 weeks) were allocated to this study. Individual body weights of animals were recorded prior to treatment and daily during the study. Animals were also evaluated once a day (at morning dose administration) for clinical signs and monitored for morbidity and mortality. The study animals were allocated into 2 groups of 5 animals. Compound 2 or citric acid vehicle control were administered once a day by oral gavage employing a sterile syringe and feeding needle for each animal. Dosing volume was 7.5 mL/kg (150 μL/20 grams body weight) for all groups. The volume was adjusted based on the daily body weight of each individual animal. […] The study started on Day 1 with the first drug dose administered in the morning and continued up to Day 14, the last day of drug treatment. Blood was collected via the central tail artery from all animals of each group on Day 1, fifteen minutes after the first drug dose, on Day 7, fifteen minutes after the drug dose, and on Day 14, fifteen minutes after the last drug dose. The blood samples were allowed to clot and the serum removed from above the clot pellet. Serum samples were stored at −80° C. prior to shipment to the study client. […]\nIndividual body weights of the animals were recorded prior to treatment and daily during the course of the study. The animals were also evaluated daily for clinical signs and monitored for morbidity and mortality. […]"}, "[4]": {"test_system": "bacterial strains TA1535, TA1537, TA98, TA100, WP2 uvrA", "experiment": "In vitro bacterial mutagenicity assay, overall conclusions for all strains", "description": "as §1"}, "[5]": {"conditions": "TA98, absence of S9, 50 μg/plate"}, "[6]": {"conditions": "TA98, absence of S9, 158 μg/plate"}, "[7]": {"conditions": "TA98, absence of S9, 500 μg/plate"}, "[8]": {"conditions": "TA98, absence of S9, 1581 μg/plate"}, "[9]": {"conditions": "TA98, absence of S9, 5000 μg/plate"}, "[10]": {"conditions": "TA98, presence of S9, 50 μg/plate"}, "[11]": {"conditions": "TA98, presence of S9, 158 μg/plate"}, "[12]": {"conditions": "TA98, presence of S9, 500 μg/plate"}, "[13]": {"conditions": "TA98, presence of S9, 1581 μg/plate"}, "[14]": {"conditions": "TA98, presence of S9, 5000 μg/plate"}, "[15]": {"conditions": "TA1537, absence of S9, 50 μg/plate"}, "[16]": {"conditions": "TA1537, absence of S9, 158 μg/plate"}, "[17]": {"conditions": "TA1537, absence of S9, 500 μg/plate"}, "[18]": {"conditions": "TA1537, absence of S9, 1581 μg/plate"}, "[19]": {"conditions": "TA1537, absence of S9, 5000 μg/plate"}, "[20]": {"conditions": "TA1537, presence of S9, 50 μg/plate"}, "[21]": {"conditions": "TA1537, presence of S9, 158 μg/plate"}, "[22]": {"conditions": "TA1537, presence of S9, 500 μg/plate"}, "[23]": {"conditions": "TA1537, presence of S9, 1581 μg/plate"}, "[24]": {"conditions": "TA1537, presence of S9, 5000 μg/plate"}}, "note": "“And” between values parts separate entries of the source, which are not always exact repeats. Equal values may be shown once.", "data": [{"smiles": "COC1C(OP(=O)(OC[C@H]2O[C@@H](n3cnc4c(N)ncnc43)CC2O)SCOC(=O)OC(C)C)[C@@H](CO)O[C@H]1n1ccc(=O)[nH]c1=O", "note": "(stereo partly drawn) [Compound 2, S-isopropylcarbonyloxymethyl thiophosphate (6k) of 3′dApsU2′OMe]", "values": [{"measurement": "Number of revertants mean", "setting": "TA98; [5]", "result": 22}, {"measurement": "Number of revertants x1, x2, x3", "setting": "TA98; [5]", "result": "18 and 15 and 33"}, {"measurement": "Number of revertants mean", "setting": "TA98; [6]", "result": 27}, {"measurement": "Number of revertants x1, x2, x3", "setting": "TA98; [6]", "result": "28 (2×) and 25"}, {"measurement": "Number of revertants mean", "setting": "TA98; [7]", "result": 24}, {"measurement": "Number of revertants x1, x2, x3", "setting": "TA98; [7]", "result": "21 and 20 and 31"}, {"measurement": "Number of revertants mean", "setting": "TA98; [8]", "result": 25}, {"measurement": "Number of revertants x1, x2, x3", "setting": "TA98; [8]", "result": "24 and 18 and 33"}, {"measurement": "Number of revertants mean", "setting": "TA98; [9]", "result": 24}, {"measurement": "Number of revertants x1, x2, x3", "setting": "TA98; [9]", "result": "27 and 26 and 20"}, {"measurement": "Number of revertants mean", "setting": "TA98; [10]", "result": 45}, {"measurement": "Number of revertants x1, x2, x3", "setting": "TA98; [10]", "result": "43 and 39 and 53"}, {"measurement": "Number of revertants mean", "setting": "TA98; [11]", "result": 40}, {"measurement": "Number of revertants x1, x2, x3", "setting": "TA98; [11]", "result": "37 and 48 and 34"}, {"measurement": "Number of revertants mean", "setting": "TA98; [12]", "result": 39}, {"measurement": "Number of revertants x1, x2, x3", "setting": "TA98; [12]", "result": "31 and 40 and 46"}, {"measurement": "Number of revertants mean", "setting": "TA98; [13]", "result": 45}, {"measurement": "Number of revertants x1, x2, x3", "setting": "TA98; [13]", "result": "44 (2×) and 46"}, {"measurement": "Number of revertants mean", "setting": "TA98; [14]", "result": 44}, {"measurement": "Number of revertants x1, x2, x3", "setting": "TA98; [14]", "result": "53 and 36 and 43"}, {"measurement": "CC50 at 3 day", "setting": "[1]", "result": "> 100", "unit": "µM"}, {"measurement": "CC50", "setting": "[2]", "result": "> 100", "unit": "µM"}, {"measurement": "Number of revertants mean", "setting": "TA1537; [15]", "result": 11}, {"measurement": "Number of revertants x1, x2, x3", "setting": "TA1537; [15]", "result": "8 and 17 and 9"}, {"measurement": "Number of revertants mean", "setting": "TA1537; [16]", "result": 12}, {"measurement": "Number of revertants x1, x2, x3", "setting": "TA1537; [16]", "result": "9 and 8 and 19"}, {"measurement": "Number of revertants mean", "setting": "TA1537; [17]", "result": 10}, {"measurement": "Number of revertants x1, x2, x3", "setting": "TA1537; [17]", "result": "15 and 6 and 10"}, {"measurement": "Number of revertants mean", "setting": "TA1537; [18]", "result": 15}, {"measurement": "Number of revertants x1, x2, x3", "setting": "TA1537; [18]", "result": "17 and 15 and 13"}, {"measurement": "Number of revertants mean", "setting": "TA1537; [19]", "result": 11}, {"measurement": "Number of revertants x1, x2, x3", "setting": "TA1537; [19]", "result": "15 and 9 and 8"}, {"measurement": "Number of revertants mean", "setting": "TA1537; [20]", "result": 17}, {"measurement": "Number of revertants x1, x2, x3", "setting": "TA1537; [20]", "result": "20 and 17 and 15"}, {"measurement": "Number of revertants mean", "setting": "TA1537; [21]", "result": 18}, {"measurement": "Number of revertants x1, x2, x3", "setting": "TA1537; [21]", "result": "16 and 18 and 21"}, {"measurement": "Number of revertants mean", "setting": "TA1537; [22]", "result": 17}, {"measurement": "Number of revertants x1, x2, x3", "setting": "TA1537; [22]", "result": "25 and 12 and 15"}, {"measurement": "Number of revertants mean", "setting": "TA1537; [23]", "result": 15}, {"measurement": "Number of revertants x1, x2, x3", "setting": "TA1537; [23]", "result": "18 and 15 and 13"}, {"measurement": "Number of revertants mean", "setting": "TA1537; [24]", "result": 12}, {"measurement": "Number of revertants x1, x2, x3", "setting": "TA1537; [24]", "result": "11 and 15 and 10"}, {"measurement": "body weight change", "setting": "[3]; 300 mg/kg daily, Day 1 to Day 14, one animal in the drug group (F187)", "result": "small decrease in body weight"}, {"measurement": "tolerability", "setting": "[3]", "result": "generally well tolerated"}, {"measurement": "tolerability", "setting": "[3]; listed as drug", "result": "well tolerated"}, {"measurement": "increases in the revertant colony counts", "setting": "[4]; any strain, absence or presence of S9 mix", "result": "No substantial increases in the revertant colony counts"}, {"measurement": "precipitation in the bacterial mutation test", "setting": "[4]; formulated in DMSO, up to 5000 μg/plate", "result": "No precipitation was observed"}, {"measurement": "toxicity to the bacteria (thinning of the background lawn of non-revertant bacteria)", "setting": "[4]; up to 5000 μg/plate", "result": "non-toxic to the bacteria at the levels tested"}]}]}
